Eleven compounds from ChEMBL document CHEMBL1155917, “Use of the nitrile oxide cycloaddition (NOC) reaction for molecular probe generation: a new class of enzyme selective histone deacetylase inhibitors (HDACIs) showing picomolar activity at HDAC6” (J Med Chem, 2008) can be followed below.

One experiment has as its system MIA PaCa-2. Briefly: Antiproliferative activity against human MiaPaca2 cells after 72 hrs by MTT assay. It counts as functional, cell-based. The conditions noted are these: MIA PaCa-2, 72 h. (Tetrazolium dyes change colour on reduction, which living cells bring about.)
For a further experiment, the system named is BXPC-3. Briefly: Antiproliferative activity against human BxPC3 cells after 72 hrs by MTT assay. Format: functional, cell-based. To be noted: BXPC-3, 72 h.
The next experiment has as its target Histone deacetylase 2 (Homo sapiens, UniProt Q92769). The experiment can be described thus: Inhibition of HDAC2 after 17 hrs.
The nature of experiment [1]: Antiproliferative activity against human SU.86.86 cells after 72 hrs by MTT assay. To be noted: SU.86.86, 72 h. Format: functional, cell-based.
The next experiment concerns HuP-T3. Briefly: Antiproliferative activity against human HupT3 cells after 72 hrs by MTT assay. Format: functional, cell-based. The conditions noted are these: HuP-T3, 72 h.
For experiment [2], the target named is T1, Protein deacetylase HDAC6 (Homo sapiens, UniProt Q9UBN7).
T1 sequence (Q9UBN7 whole entry): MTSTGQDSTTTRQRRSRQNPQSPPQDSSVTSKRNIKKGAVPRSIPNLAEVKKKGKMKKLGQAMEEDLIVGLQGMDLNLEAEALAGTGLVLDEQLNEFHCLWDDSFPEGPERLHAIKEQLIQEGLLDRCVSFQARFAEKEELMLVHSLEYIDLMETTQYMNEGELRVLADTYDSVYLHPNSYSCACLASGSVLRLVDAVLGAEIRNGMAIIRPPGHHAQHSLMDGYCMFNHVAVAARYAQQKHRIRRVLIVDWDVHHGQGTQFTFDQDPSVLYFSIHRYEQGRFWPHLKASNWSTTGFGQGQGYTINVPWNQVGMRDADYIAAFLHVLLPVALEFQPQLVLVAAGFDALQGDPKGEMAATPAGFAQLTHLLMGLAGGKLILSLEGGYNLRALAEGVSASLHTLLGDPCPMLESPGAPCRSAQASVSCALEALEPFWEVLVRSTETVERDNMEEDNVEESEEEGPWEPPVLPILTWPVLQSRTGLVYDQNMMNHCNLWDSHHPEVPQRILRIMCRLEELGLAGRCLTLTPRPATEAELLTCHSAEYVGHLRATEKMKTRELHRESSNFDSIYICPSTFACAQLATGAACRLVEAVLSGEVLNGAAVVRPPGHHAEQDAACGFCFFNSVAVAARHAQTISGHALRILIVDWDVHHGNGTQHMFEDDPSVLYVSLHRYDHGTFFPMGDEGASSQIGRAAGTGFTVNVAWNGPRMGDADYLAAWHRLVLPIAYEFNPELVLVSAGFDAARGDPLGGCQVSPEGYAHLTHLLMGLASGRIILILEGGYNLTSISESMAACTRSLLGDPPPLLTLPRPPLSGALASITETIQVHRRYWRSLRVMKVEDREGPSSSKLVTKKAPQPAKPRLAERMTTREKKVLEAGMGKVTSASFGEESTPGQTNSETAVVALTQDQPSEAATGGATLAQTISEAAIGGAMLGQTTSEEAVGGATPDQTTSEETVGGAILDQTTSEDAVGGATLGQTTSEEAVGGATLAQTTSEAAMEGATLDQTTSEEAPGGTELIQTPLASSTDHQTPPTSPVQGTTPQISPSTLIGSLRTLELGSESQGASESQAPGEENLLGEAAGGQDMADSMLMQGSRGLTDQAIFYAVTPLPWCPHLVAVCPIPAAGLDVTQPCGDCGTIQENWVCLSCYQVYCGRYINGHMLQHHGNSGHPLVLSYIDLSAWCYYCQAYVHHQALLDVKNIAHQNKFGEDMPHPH
The experiment can be described thus: Inhibition of HDAC6 after 17 hrs.

Experiment [3] in a line: Antiproliferative activity against human Panc04.03 cells after 72 hrs by MTT assay. It counts as functional, cell-based. To be noted: Panc 04.03, 72 h.
The next experiment addresses T2, Histone deacetylase 8 (Homo sapiens, UniProt Q9BY41).
T2 sequence (Q9BY41 whole entry): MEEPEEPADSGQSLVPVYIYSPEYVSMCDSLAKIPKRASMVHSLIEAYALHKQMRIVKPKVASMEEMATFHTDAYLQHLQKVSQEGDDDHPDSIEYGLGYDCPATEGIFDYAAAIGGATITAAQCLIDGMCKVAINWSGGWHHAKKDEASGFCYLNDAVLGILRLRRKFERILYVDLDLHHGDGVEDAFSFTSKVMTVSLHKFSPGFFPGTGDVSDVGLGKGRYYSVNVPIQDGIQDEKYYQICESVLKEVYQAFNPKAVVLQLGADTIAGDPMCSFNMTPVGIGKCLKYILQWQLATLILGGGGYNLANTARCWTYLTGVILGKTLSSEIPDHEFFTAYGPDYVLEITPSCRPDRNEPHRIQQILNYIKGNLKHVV

A further experiment deals with Histone deacetylase 3 (Homo sapiens, UniProt O15379). The experiment can be described thus: Inhibition of HDAC3 after 17 hrs.
Histone deacetylase 3, sequence (O15379 whole entry): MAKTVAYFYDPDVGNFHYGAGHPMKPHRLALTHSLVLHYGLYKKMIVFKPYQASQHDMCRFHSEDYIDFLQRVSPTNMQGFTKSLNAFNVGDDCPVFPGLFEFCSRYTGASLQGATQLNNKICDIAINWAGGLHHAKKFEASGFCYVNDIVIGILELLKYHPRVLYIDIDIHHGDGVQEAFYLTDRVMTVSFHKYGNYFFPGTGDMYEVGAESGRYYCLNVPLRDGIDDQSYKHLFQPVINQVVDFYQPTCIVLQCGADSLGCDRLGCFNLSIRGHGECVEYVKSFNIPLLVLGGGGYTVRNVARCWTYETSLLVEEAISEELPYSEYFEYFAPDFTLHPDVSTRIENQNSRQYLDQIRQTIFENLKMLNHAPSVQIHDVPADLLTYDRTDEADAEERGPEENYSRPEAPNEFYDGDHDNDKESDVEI
The target of experiment [4] is T3, Polyamine deacetylase HDAC10 (Homo sapiens, UniProt Q969S8).
T3 sequence (Q969S8 whole entry): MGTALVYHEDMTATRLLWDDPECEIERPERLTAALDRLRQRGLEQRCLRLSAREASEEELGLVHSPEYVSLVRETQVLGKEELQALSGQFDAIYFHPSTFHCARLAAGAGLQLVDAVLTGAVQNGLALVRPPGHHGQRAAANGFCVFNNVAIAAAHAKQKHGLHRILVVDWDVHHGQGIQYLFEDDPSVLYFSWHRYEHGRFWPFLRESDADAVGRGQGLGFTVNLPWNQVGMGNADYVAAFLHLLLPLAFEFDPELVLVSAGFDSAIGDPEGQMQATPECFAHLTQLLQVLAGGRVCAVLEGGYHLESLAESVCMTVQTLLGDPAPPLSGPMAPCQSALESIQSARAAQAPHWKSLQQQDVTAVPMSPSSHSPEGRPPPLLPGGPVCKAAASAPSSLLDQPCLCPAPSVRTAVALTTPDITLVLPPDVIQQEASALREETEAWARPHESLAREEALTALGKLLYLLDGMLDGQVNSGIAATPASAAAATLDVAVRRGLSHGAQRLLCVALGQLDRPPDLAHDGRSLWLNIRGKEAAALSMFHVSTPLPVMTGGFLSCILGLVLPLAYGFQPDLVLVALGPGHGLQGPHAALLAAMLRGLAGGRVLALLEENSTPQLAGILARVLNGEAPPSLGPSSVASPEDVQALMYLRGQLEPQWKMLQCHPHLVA
Description: Inhibition of HDAC10 after 17 hrs

A further experiment deals with Histone deacetylase 1 (Homo sapiens, UniProt Q13547).
Histone deacetylase 1, sequence (Q13547 whole entry): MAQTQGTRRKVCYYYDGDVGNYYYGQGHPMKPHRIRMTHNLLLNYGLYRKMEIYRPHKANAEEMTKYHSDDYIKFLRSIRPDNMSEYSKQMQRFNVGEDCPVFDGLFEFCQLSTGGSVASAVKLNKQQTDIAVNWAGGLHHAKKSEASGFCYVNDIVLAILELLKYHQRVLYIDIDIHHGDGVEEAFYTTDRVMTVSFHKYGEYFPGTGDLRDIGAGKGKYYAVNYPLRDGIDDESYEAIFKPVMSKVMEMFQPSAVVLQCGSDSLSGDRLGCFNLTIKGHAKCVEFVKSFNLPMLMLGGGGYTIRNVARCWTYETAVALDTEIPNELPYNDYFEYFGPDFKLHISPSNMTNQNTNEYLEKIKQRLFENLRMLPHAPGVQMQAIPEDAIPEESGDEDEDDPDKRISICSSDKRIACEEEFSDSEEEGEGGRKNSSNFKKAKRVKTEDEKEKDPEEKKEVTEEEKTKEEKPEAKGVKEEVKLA
Another experiment deals with HMEC. The experiment can be described thus: Cytotoxicity against HMEC after 72 hrs by MTT assay. The conditions noted are these: Homo sapiens. Format: ADME, cell-based.
Experiment [5] is described as follows: Cytotoxicity against HPDE 6c7 cells after 72 hrs by MTT assay. It counts as ADME, cell-based. To be noted: Homo sapiens, HPDE6c7, 72 h.

For orientation: IC50 means the concentration at which inhibition is half-maximal. Lower therefore signals greater potency in that assay.

Histone deacetylase 2, sequence (Q92769 whole entry): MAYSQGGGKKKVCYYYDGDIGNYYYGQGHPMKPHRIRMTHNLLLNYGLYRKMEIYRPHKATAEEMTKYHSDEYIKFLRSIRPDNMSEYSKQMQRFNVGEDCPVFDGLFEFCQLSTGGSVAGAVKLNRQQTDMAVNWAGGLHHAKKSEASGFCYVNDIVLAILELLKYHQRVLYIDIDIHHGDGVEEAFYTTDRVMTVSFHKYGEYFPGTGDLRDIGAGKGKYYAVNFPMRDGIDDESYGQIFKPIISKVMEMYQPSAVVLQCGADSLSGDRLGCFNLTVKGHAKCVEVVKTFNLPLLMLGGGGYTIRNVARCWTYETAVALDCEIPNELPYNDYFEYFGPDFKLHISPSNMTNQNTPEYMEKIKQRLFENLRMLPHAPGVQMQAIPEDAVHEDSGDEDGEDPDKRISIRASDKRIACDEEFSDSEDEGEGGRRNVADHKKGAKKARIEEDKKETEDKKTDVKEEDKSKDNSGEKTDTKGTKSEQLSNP
Description for Histone deacetylase 1: Inhibition of HDAC1 after 17 hrs
Description for Histone deacetylase 8: Inhibition of HDAC8 after 17 hrs

Turning to `Nc1ccc(-c2cc(C(=O)NCCCCC(=O)NO)no2)cc1`, the IC50 came to 10000 nM in the experiment with MIA PaCa-2; 33000 nM with BXPC-3; 1050 nM against Histone deacetylase 2; 11000 nM in experiment [1]; 7000 nM in the experiment with HuP-T3; 35.1 nM in [2]. In addition, the IC50 turned out to be 17000 nM in experiment [3]; 2830 nM on Histone deacetylase 8; 65.8 nM at Histone deacetylase 3; 401 nM in experiment [4]; 360 nM at Histone deacetylase 1.
`O=C(CCCCOCc1cc(-c2ccccc2)on1)NO`: the 50% inhibitory concentration (IC50) in the experiment on MIA PaCa-2 is 1000 nM; in the experiment with BXPC-3, 7000 nM; at Histone deacetylase 2 it was 133 nM; in [1] it was 1000 nM; with HuP-T3, 400 nM; in [2], 49.5 nM. The IC50 in experiment [3] was found to be 1500 nM; at Histone deacetylase 8 it was 3320 nM; against Histone deacetylase 3, 12.9 nM; in [4], 155 nM; on Histone deacetylase 1, 124 nM.
As to `Nc1ccc(-c2cc(C(=O)NCCCCCCC(=O)NO)no2)cc1`, the IC50 in the experiment on MIA PaCa-2 was 100 nM; in the experiment with HMEC, under 1000 nM; in experiment [5], 400 nM; with BXPC-3, 800 nM; at Histone deacetylase 2, 147 nM; in experiment [1] it was 800 nM. For the same compound, the IC50 in the experiment on HuP-T3 turned out to be 200 nM; in experiment [2] it was 5.86 nM; in experiment [3], 100 nM; at Histone deacetylase 8 it was 3460 nM; against Histone deacetylase 3, 10.2 nM; in experiment [4], 44.9 nM. For the same compound, on Histone deacetylase 1, the IC50 was determined as 56.3 nM.
Take `Nc1cccc(-c2cc(C(=O)NCCCCC(=O)NO)no2)c1`: the IC50 was determined as 25000 nM in the experiment on MIA PaCa-2; 38000 nM in the experiment with BXPC-3; 1940 nM against Histone deacetylase 2; 25000 nM in [1]; 37000 nM in the experiment on HuP-T3; 72.2 nM in experiment [2]. Besides, the IC50 in experiment [3] is over 50000 nM; against Histone deacetylase 8 it was 3430 nM; at Histone deacetylase 3 it was 144 nM; in experiment [4], 840 nM; on Histone deacetylase 1, 716 nM.
For the compound `CC(C)(C)OC(=O)Nc1cccc(-c2cc(C(=O)NCCCCC(=O)NO)no2)c1`, the IC50 amounted to 8000 nM in the experiment on MIA PaCa-2; 36000 nM in the experiment with BXPC-3; 2980 nM against Histone deacetylase 2; 22000 nM in experiment [1]; 14000 nM in the experiment with HuP-T3; 3.98 nM in experiment [2]. The IC50 in [3] was 14000 nM; at Histone deacetylase 8, 5810 nM; against Histone deacetylase 3, 83.6 nM; in experiment [4], 891 nM; on Histone deacetylase 1, 826 nM.
In the case of `Nc1cccc(-c2cc(C(=O)NCCCCCCC(=O)NO)no2)c1`, the IC50 is 100 nM in the experiment with MIA PaCa-2; under 1000 nM with HMEC; 200 nM in experiment [5]; 700 nM in the experiment on BXPC-3; 56.7 nM on Histone deacetylase 2; 200 nM in experiment [1]. Also, the IC50 is 100 nM with HuP-T3; 2.54 nM in [2]; 900 nM in experiment [3]; 938 nM against Histone deacetylase 8; 4.04 nM against Histone deacetylase 3; 17.5 nM in [4]. This compound also returned an IC50 against Histone deacetylase 1 of 20.7 nM.
For `CC(C)(C)OC(=O)Nc1ccc(-c2cc(C(=O)NCCCCC(=O)NO)no2)cc1`, the IC50 in the experiment on MIA PaCa-2 came to 12000 nM; with BXPC-3, 25000 nM; against Histone deacetylase 2, 1740 nM; in experiment [1], 24000 nM; with HuP-T3, 10000 nM; in [2] it was 31.6 nM. Besides, the IC50 in [3] is 16000 nM; against Histone deacetylase 8, 3650 nM; against Histone deacetylase 3, 115 nM; in experiment [4], 690 nM; against Histone deacetylase 1 it was 628 nM.
For `CC(C)(C)OC(=O)Nc1cccc(-c2cc(C(=O)NCCCCCCC(=O)NO)no2)c1`, the half-maximal inhibitory concentration (IC50) came out at 700 nM with MIA PaCa-2; 7000 nM in the experiment with HMEC; 1500 nM in experiment [5]; 1000 nM in the experiment on BXPC-3; 238 nM on Histone deacetylase 2; 1000 nM in experiment [1]. Further, the IC50 was 800 nM with HuP-T3; under 0.002 nM in experiment [2]; 1000 nM in [3]; 8100 nM at Histone deacetylase 8; under 0.002 nM on Histone deacetylase 3; 28.2 nM in [4]. The compound further registered an IC50 at Histone deacetylase 1 of 100 nM.
Take `CC(=O)Nc1ccc(-c2cc(C(=O)NCCCCCCC(=O)NO)no2)cc1`: the IC50 is 900 nM in the experiment on MIA PaCa-2; 6000 nM with BXPC-3; 131 nM against Histone deacetylase 2; 1000 nM in experiment [1]; 1000 nM with HuP-T3; 6.81 nM in experiment [2]. Also, the IC50 stood at 4000 nM in [3]; 4900 nM against Histone deacetylase 8; 18 nM against Histone deacetylase 3; 73 nM in [4]; 64.5 nM on Histone deacetylase 1.
Take `O=C(CCCCNC(=O)c1cc(-c2ccccc2)on1)NO`: the IC50 in the experiment on MIA PaCa-2 was determined as 4000 nM; in the experiment with BXPC-3 it was 28000 nM; at Histone deacetylase 2 it was 1690 nM; in experiment [1], 5000 nM; in the experiment on HuP-T3 it was 5000 nM; in experiment [2], 61.9 nM. Also, the IC50 was determined as 5000 nM in [3]; 3580 nM at Histone deacetylase 8; 158 nM against Histone deacetylase 3; 852 nM in experiment [4]; 644 nM against Histone deacetylase 1.
Consider `CC(C)(C)OC(=O)Nc1ccc(-c2cc(C(=O)NCCCCCCC(=O)NO)no2)cc1`, for which the IC50 in the experiment with MIA PaCa-2 was 100 nM; in the experiment with HMEC, under 1000 nM; in experiment [5], 500 nM; in the experiment with BXPC-3 it was 1000 nM; on Histone deacetylase 2, 252 nM; in [1] it was 600 nM. Further, the IC50 in the experiment on HuP-T3 is 300 nM; in [3] it was 100 nM; against Histone deacetylase 8 it was 6850 nM; at Histone deacetylase 3, 0.42 nM; in experiment [4], 90.7 nM; on Histone deacetylase 1, 271 nM.
